Measurements from PubChem BioAssay AID248 (DTP/NCI, 2004).
Values joined by “and” are separate entries in the source; they are usually repeats but may differ in a detail not shown here. Equal entries are not always repeated. Inconclusive results and toxic doses are left out. Cut-off read from the data, not from the text of the source: active = T/C of 150% or more; inactive = T/C below 125%.

Test system: L1210 leukemia ip in BDF1 mice, survival T/C
Test: NCI In Vivo Anticancer Drug Screen. Data for tumor model L1210 Leukemia (intraperitoneal) in B6D2F1 (BDF1) mice
Conditions: endpoint: mean survival time, higher = longer survival
How it was run: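 Read-out is survival time, reported as the treated-group measurement over the vehicle-control measurement.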

[1] = dose: 100.0 mg/kg/injection, schedule: Q04DX003 (ip), vehicle: Klucel (hydroxypropylcellulose) (HPC)
[2] = dose: 100.0 mg/kg/injection, schedule: Q01DX009 (ip), vehicle: saline with Tween-80
[3] = dose: 100.0 mg/kg/injection, schedule: Q04DX003 (ip), vehicle: saline with Tween-80
[4] = dose: 200.0 mg/kg/injection, schedule: Q01DX009 (ip), vehicle: saline with Tween-80
[5] = dose: 200.0 mg/kg/injection, schedule: Q04DX003 (ip), vehicle: saline with Tween-80
[6] = dose: 400.0 mg/kg/injection, schedule: Q01DX009 (ip), vehicle: saline with Tween-80
[7] = dose: 400.0 mg/kg/injection, schedule: Q04DX003 (ip), vehicle: saline with Tween-80
[8] = dose: 100.0 mg/kg/injection, schedule: Q04DX003 (ip), vehicle: saline
[9] = dose: 200.0 mg/kg/injection, schedule: Q04DX003 (ip), vehicle: saline
[10] = dose: 400.0 mg/kg/injection, schedule: Q04DX003 (ip), vehicle: saline
[11] = dose: 100.0 mg/kg/injection, schedule: Q01DX001 (ip), vehicle: Klucel (hydroxypropylcellulose) (HPC)
[12] = dose: 100.0 mg/kg/injection, schedule: Q01DX001 (ip), vehicle: saline
[13] = dose: 200.0 mg/kg/injection, schedule: Q01DX001 (ip), vehicle: saline
[14] = dose: 400.0 mg/kg/injection, schedule: Q01DX001 (ip), vehicle: saline
[15] = dose: 12.5 mg/kg/injection, schedule: Q01DX009 (ip), vehicle: saline
[16] = dose: 25.0 mg/kg/injection, schedule: Q01DX009 (ip), vehicle: saline
[17] = dose: 25.0 mg/kg/injection, schedule: Q04DX003 (ip), vehicle: Klucel (hydroxypropylcellulose) (HPC)
[18] = dose: 50.0 mg/kg/injection, schedule: Q04DX003 (ip), vehicle: Klucel (hydroxypropylcellulose) (HPC)
[19] = dose: 50.0 mg/kg/injection, schedule: Q01DX001 (ip), vehicle: saline

Measured: T/C

Nc1nc2nc(N=Nc3ccc(C(=O)O)cc3)[nH]c2c(=O)[nH]1
inactive: [1] 96 % of control | dose: 200.0 mg/kg/injection, schedule: Q04DX003 (ip), vehicle: Klucel (hydroxypropylcellulose) (HPC) 91 % of control | dose: 400.0 mg/kg/injection, schedule: Q04DX003 (ip), vehicle: Klucel (hydroxypropylcellulose) (HPC) 99 % of control

Cc1ccc(Cl)cc1NC(=O)N(C)Cc1ccccc1
inactive: [2] 95 % of control and 104 % of control | dose: 100.0 mg/kg/injection, schedule: Q04DX002 (ip), vehicle: saline with Tween-80 94 % of control and 120 % of control | [3] 100 % of control | [4] 97 % of control and 104 % of control | dose: 200.0 mg/kg/injection, schedule: Q04DX002 (ip), vehicle: saline with Tween-80 98 % of control and 105 % of control | [5] 105 % of control | [6] 97 % of control and 108 % of control | dose: 400.0 mg/kg/injection, schedule: Q04DX002 (ip), vehicle: saline with Tween-80 98 % of control and 86 % of control | [7] 108 % of control

CC(C)(NC(=O)C(F)(F)F)C(=O)O
inactive: [8] 100 % of control | [9] 87 % of control | [10] 95 % of control

O=S(N=C(C(F)(F)F)C(F)(F)F)C(F)(F)F (configuration not stated)
inactive: dose: 50.0 mg/kg/injection, schedule: Q01DX001 (ip), vehicle: Klucel (hydroxypropylcellulose) (HPC) 92 % of control | [11] 106 % of control

CN(C)c1ccc(C=Nc2cccc([N+](=O)[O-])c2)cc1
inactive: [11] 91 % of control | dose: 200.0 mg/kg/injection, schedule: Q01DX001 (ip), vehicle: Klucel (hydroxypropylcellulose) (HPC) 86 % of control | dose: 400.0 mg/kg/injection, schedule: Q01DX001 (ip), vehicle: Klucel (hydroxypropylcellulose) (HPC) 90 % of control

CCCC(CC(=O)O)OC (configuration not stated)
inactive: [12] 103 % of control | [13] 110 % of control | [14] 110 % of control

c1ccc2snnc2c1
inactive: dose: 20.0 mg/kg/injection, schedule: Q01DX001 (ip), vehicle: saline 102 % of control | dose: 40.0 mg/kg/injection, schedule: Q01DX001 (ip), vehicle: saline 104 % of control | dose: 80.0 mg/kg/injection, schedule: Q01DX001 (ip), vehicle: saline 98 % of control

Cc1ccc(-n2c(=S)[nH]c3ccc(C)cc3c2=O)cc1
inactive: dose: 25.0 mg/kg/injection, schedule: Q01DX009 (ip), vehicle: saline with Tween-80 87 % of control | [3] 87 % of control

Nc1ccc(S(=O)(=O)c2cc(O)c3ccccc3c2O)cc1
inactive: [15] 91 % of control | dose: 12.5 mg/kg/injection, schedule: Q04DX003 (ip), vehicle: Klucel (hydroxypropylcellulose) (HPC) 103 % of control | [16] 91 % of control | [17] 102 % of control | [18] 92 % of control

O=[N+]([O-])c1ccc2[nH]c(O)c(N=Nc3ccccc3[N+](=O)[O-])c2c1
inactive: [12] 98 % of control | [13] 96 % of control | [14] 105 % of control

CC(=O)OC1C2CCC(C2)C1C (configuration not stated)
inactive: [2] 98 % of control | [4] 104 % of control | [6] 96 % of control

O=c1[nH]cnc2c1ncn2C1OC(CI)C(O)C1O (configuration not stated)
inactive: dose: 100.0 mg/kg/injection, schedule: Q01DX005 (ip), vehicle: saline 95 % of control | dose: 200.0 mg/kg/injection, schedule: Q01DX005 (ip), vehicle: saline 101 % of control

CC(Cc1ccccc1)C(=O)c1ccccc1 (configuration not stated)
inactive: dose: 100.0 mg/kg/injection, schedule: Q01DX001 (ip), vehicle: saline with Tween-80 102 % of control | [2] 102 % of control | dose: 200.0 mg/kg/injection, schedule: Q01DX001 (ip), vehicle: saline with Tween-80 94 % of control | [4] 97 % of control | dose: 400.0 mg/kg/injection, schedule: Q01DX001 (ip), vehicle: saline with Tween-80 94 % of control | [6] 98 % of control

CC(=O)CO
inactive: dose: 50.0 mg/kg/injection, schedule: Q01DX001 (ip), vehicle: carboxymethylcellulose (CMC) 98 % of control | dose: 100.0 mg/kg/injection, schedule: Q01DX001 (ip), vehicle: carboxymethylcellulose (CMC) 101 % of control | dose: 100.0 mg/kg/injection, schedule: Q01DX009 (ip), vehicle: saline 90 % of control | [8] 93 % of control | dose: 200.0 mg/kg/injection, schedule: Q01DX001 (ip), vehicle: carboxymethylcellulose (CMC) 101 % of control | dose: 200.0 mg/kg/injection, schedule: Q01DX009 (ip), vehicle: saline 97 % of control | [9] 96 % of control | dose: 400.0 mg/kg/injection, schedule: Q01DX001 (ip), vehicle: carboxymethylcellulose (CMC) 98 % of control | dose: 400.0 mg/kg/injection, schedule: Q01DX009 (ip), vehicle: saline 100 % of control | [10] 101 % of control

CON(C)CC(Cl)c1ccccc1 (configuration not stated)
inactive: dose: 6.25 mg/kg/injection, schedule: Q01DX009 (ip), vehicle: saline 100 % of control | dose: 6.25 mg/kg/injection, schedule: Q04DX003 (ip), vehicle: saline with Tween-80 98 % of control | [15] 100 % of control | dose: 12.5 mg/kg/injection, schedule: Q04DX003 (ip), vehicle: saline with Tween-80 96 % of control | [16] 92 % of control | dose: 25.0 mg/kg/injection, schedule: Q04DX003 (ip), vehicle: saline with Tween-80 104 % of control | dose: 50.0 mg/kg/injection, schedule: Q01DX009 (ip), vehicle: saline 92 % of control | dose: 50.0 mg/kg/injection, schedule: Q04DX003 (ip), vehicle: saline with Tween-80 96 % of control and 98 % of control

CC(C)C(C#N)(CCCCN1CCOCC1)c1cccc2ccccc12 (configuration not stated)
inactive: [17] 93 % of control | [18] 103 % of control | [1] 92 % of control

Cc1cc2cc3c(=O)[nH]c(=O)[nH]c3nc2cc1C
inactive: [12] 93 % of control | [13] 102 % of control | [14] 91 % of control

CCCCNS(=O)(=O)c1ccc(NC(=O)c2ccc3ccccc3c2O)c([N+](=O)[O-])c1
inactive: [3] 90 % of control | [5] 88 % of control | [7] 88 % of control

COC1CCC(C2=NC3CCCCC3SC2)CC1 (configuration not stated)
inactive: dose: 100.0 mg/kg/injection, schedule: Q04DX002 (sc), vehicle: olive oil, sesame oil, peanut oil 97 % of control | dose: 200.0 mg/kg/injection, schedule: Q04DX002 (sc), vehicle: olive oil, sesame oil, peanut oil 107 % of control | dose: 400.0 mg/kg/injection, schedule: Q04DX002 (sc), vehicle: olive oil, sesame oil, peanut oil 100 % of control

CCC(=O)OCNC(=O)NNC(=O)CCCC(=O)NNC(=O)NCOC(=O)CC
inactive: [19] 102 % of control | [12] 102 % of control | [13] 106 % of control | [14] 100 % of control

O=C(O)C1=C(C(=O)O)C2C=CC1N2Cc1ccccc1
inactive: dose: 100.0 mg/kg/injection, schedule: Q01DX001 (ip), vehicle: other 96 % of control | dose: 200.0 mg/kg/injection, schedule: Q01DX001 (ip), vehicle: other 102 % of control

CC(=O)Oc1cc(C)cc(OC(C)=O)n1
inactive: [19] 104 % of control | [12] 98 % of control | [13] 98 % of control | [14] 96 % of control

Cc1ccc(NC(=O)COc2ccccc2)c(C)c1
inactive: dose: 100.0 mg/kg/injection, schedule: Q04DX002 (ip), vehicle: Klucel (hydroxypropylcellulose) (HPC) 107 % of control | dose: 200.0 mg/kg/injection, schedule: Q04DX002 (ip), vehicle: Klucel (hydroxypropylcellulose) (HPC) 104 % of control | dose: 400.0 mg/kg/injection, schedule: Q04DX002 (ip), vehicle: Klucel (hydroxypropylcellulose) (HPC) 100 % of control

c1ccc([P+](c2ccccc2)(c2ccccc2)c2ccccc2)cc1
inactive: dose: 2.5 mg/kg/injection, schedule: Q01DX009 (ip), vehicle: saline 110 % of control | dose: 2.5 mg/kg/injection, schedule: Q04DX003 (ip), vehicle: saline 103 % of control | dose: 5.0 mg/kg/injection, schedule: Q01DX001 (ip), vehicle: saline 110 % of control | dose: 5.0 mg/kg/injection, schedule: Q01DX009 (ip), vehicle: saline 114 % of control | dose: 5.0 mg/kg/injection, schedule: Q04DX003 (ip), vehicle: saline 106 % of control | dose: 10.0 mg/kg/injection, schedule: Q01DX001 (ip), vehicle: saline 94 % of control | dose: 10.0 mg/kg/injection, schedule: Q04DX003 (ip), vehicle: saline 109 % of control
